According to ChEMBL document CHEMBL1201862, “PubChem BioAssay data set” (2004):
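Compound exposure: 48 hours, 5 concentrations, 96-well plates. GI50: concentration for 50% inhibition of growth.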 Active and inactive are the calls of the source. No stated cut-off is given here; in the data, active = GI50 up to about 1.1 µM and inactive = higher.

Legend:
Assay in all cases: NCI-60 cell line screen, 48 h
MCF7 = system: MCF7
SK-MEL-28 = system: SK-MEL-28
Malme-3M = system: Malme-3M
OVCAR-3 = system: OVCAR-3
OVCAR-4 = system: OVCAR-4
SN12C = system: SN12C
COLO 205 = system: COLO 205
MDA-N = system: MDA-N
HOP-92 = system: HOP-92
ACHN = system: ACHN
M14 = system: M14
NCI-H460 = system: NCI-H460
HCC 2998 = system: HCC 2998
SF-295 = system: SF-295
K562 = system: K562
CCRF-CEM = system: CCRF-CEM
UACC-257 = system: UACC-257
HCT-116 = system: HCT-116
NCI/ADR-RES = system: NCI/ADR-RES
HCT-15 = system: HCT-15
UO-31 = system: UO-31
786-0 = system: 786-0
MOLT-4 = system: MOLT-4
A498 = system: A498
OVCAR-5 = system: OVCAR-5
NCI-H522 = system: NCI-H522
OVCAR-8 = system: OVCAR-8
CAKI-1 = system: CAKI-1
MDA-MB-435 = system: MDA-MB-435
SK-MEL-2 = system: SK-MEL-2
IGROV-1 = system: IGROV-1
A549 = system: A549
HOP-62 = system: HOP-62
Hs-578T = system: Hs-578T
PC-3 = system: PC-3
SK-MEL-5 = system: SK-MEL-5
T47D = system: T47D
LOX IMVI = system: LOX IMVI
RPMI-8226 = system: RPMI-8226
SK-OV-3 = system: SK-OV-3
UACC-62 = system: UACC-62
EKVX = system: EKVX
U-251 = system: U-251
HT-29 = system: HT-29
KM12 = system: KM12
SR = system: SR
HL-60 = system: HL-60
SF-268 = system: SF-268
BT-549 = system: BT-549
SNB-19 = system: SNB-19
SW-620 = system: SW-620
SNB-75 = system: SNB-75
TK-10 = system: TK-10
RXF 393 = system: RXF 393
SF-539 = system: SF-539
MDA-MB-231 = system: MDA-MB-231
NCI-H23 = system: NCI-H23
DU-145 = system: DU-145
NCI-H226 = system: NCI-H226

COc1ccc(C2=Nn3c(nnc3-c3ccccc3)S/C2=C\c2ccc(-c3ccc([N+](=O)[O-])cc3)o2)cc1
GI50 (MCF7): 15.1 µM (inactive) | GI50 (SK-MEL-28): 69.7 µM (inactive) | GI50 (Malme-3M): 34.8 µM (inactive) | GI50 (OVCAR-3): 23.3 µM (inactive) | GI50 (OVCAR-4): 30 µM (inactive) | GI50 (SN12C): 18.2 µM (inactive) | GI50 (COLO 205): 25.8 µM (inactive) | GI50 (MDA-N): 7.6 µM (inactive) | GI50 (HOP-92): 54.8 µM (inactive) | GI50 (ACHN): 64.1 µM (inactive) | GI50 (M14): 25.4 µM (inactive) | GI50 (NCI-H460): 27.4 µM (inactive) | GI50 (HCC 2998): 28 µM (inactive) | GI50 (SF-295): 26.5 µM (inactive) | GI50 (K562): 13.3 µM (inactive) | GI50 (CCRF-CEM): 5.7 µM (inactive) | GI50 (UACC-257): 44.7 µM (inactive) | GI50 (HCT-116): 29.6 µM (inactive) | GI50 (NCI/ADR-RES): 25.2 µM (inactive) | GI50 (HCT-15): 16.5 µM | GI50 (UO-31): 36.4 µM (inactive) | GI50 (786-0): 24.9 µM (inactive) | GI50 (MOLT-4): 11.3 µM (inactive) | GI50 (A498): 58.6 µM (inactive) | GI50 (OVCAR-5): 47.6 µM (inactive) | GI50 (NCI-H522): 12.8 µM (inactive) | GI50 (OVCAR-8): 30.5 µM (inactive) | GI50 (CAKI-1): 51.2 µM (inactive) | GI50 (MDA-MB-435): 5.83 µM (inactive) | GI50 (SK-MEL-2): 15.8 µM (inactive) | GI50 (IGROV-1): 56.9 µM (inactive) | GI50 (A549): 36.7 µM (inactive) | GI50 (HOP-62): 52.4 µM (inactive) | GI50 (Hs-578T): 33.7 µM (inactive) | GI50 (PC-3): 27.3 µM (inactive) | GI50 (SK-MEL-5): 27.6 µM (inactive) | GI50 (T47D): 18.6 µM (inactive) | GI50 (LOX IMVI): 25 µM (inactive) | GI50 (RPMI-8226): 13.1 µM (inactive) | GI50 (SK-OV-3): 34.4 µM (inactive) | GI50 (UACC-62): 48.3 µM (inactive) | GI50 (EKVX): 50.9 µM (inactive) | GI50 (U-251): 22.6 µM (inactive) | GI50 (HT-29): 26.4 µM (inactive) | GI50 (KM12): 23.2 µM (inactive) | GI50 (SR): 9.62 µM (inactive) | GI50 (HL-60): 14.5 µM (inactive) | GI50 (SF-268): 28.8 µM (inactive) | GI50 (BT-549): 26.2 µM (inactive) | GI50 (SNB-19): 33.3 µM (inactive) | GI50 (SW-620): 24.2 µM (inactive)

CCOP(=O)(OCC)C(C)(CC)NC (configuration not stated)
GI50 (MCF7): > 100 µM (inactive) | GI50 (SK-MEL-28): > 100 µM (inactive) | GI50 (SNB-75): > 100 µM (inactive) | GI50 (Malme-3M): > 100 µM (inactive) | GI50 (OVCAR-3): > 100 µM (inactive) | GI50 (OVCAR-4): > 100 µM (inactive) | GI50 (SN12C): > 100 µM (inactive) | GI50 (TK-10): > 100 µM (inactive) | GI50 (RXF 393): > 100 µM (inactive) | GI50 (COLO 205): > 100 µM (inactive) | GI50 (MDA-N): > 100 µM (inactive) | GI50 (HOP-92): > 100 µM (inactive) | GI50 (ACHN): > 100 µM (inactive) | GI50 (M14): > 100 µM (inactive) | GI50 (NCI-H460): > 100 µM (inactive) | GI50 (HCC 2998): > 100 µM (inactive) | GI50 (SF-539): > 100 µM (inactive) | GI50 (SF-295): > 100 µM (inactive) | GI50 (K562): > 100 µM (inactive) | GI50 (CCRF-CEM): 0.935 µM (active) | GI50 (UACC-257): > 100 µM (inactive) | GI50 (HCT-116): > 100 µM (inactive) | GI50 (NCI/ADR-RES): > 100 µM (inactive) | GI50 (HCT-15): > 100 µM | GI50 (UO-31): > 100 µM (inactive) | GI50 (786-0): > 100 µM (inactive) | GI50 (MOLT-4): > 100 µM (inactive) | GI50 (A498): > 100 µM (inactive) | GI50 (MDA-MB-231): > 100 µM (inactive) | GI50 (OVCAR-5): > 100 µM (inactive) | GI50 (NCI-H522): > 100 µM (inactive) | GI50 (OVCAR-8): > 100 µM (inactive) | GI50 (CAKI-1): > 100 µM (inactive) | GI50 (MDA-MB-435): > 100 µM (inactive) | GI50 (SK-MEL-2): > 100 µM (inactive) | GI50 (IGROV-1): > 100 µM (inactive) | GI50 (A549): > 100 µM (inactive) | GI50 (HOP-62): > 100 µM (inactive) | GI50 (Hs-578T): > 100 µM (inactive) | GI50 (SK-MEL-5): > 100 µM (inactive) | GI50 (T47D): > 100 µM (inactive) | GI50 (LOX IMVI): > 100 µM (inactive) | GI50 (NCI-H23): > 100 µM (inactive) | GI50 (SK-OV-3): > 100 µM (inactive) | GI50 (UACC-62): > 100 µM (inactive) | GI50 (EKVX): > 100 µM (inactive) | GI50 (U-251): > 100 µM (inactive) | GI50 (HT-29): > 100 µM (inactive) | GI50 (KM12): > 100 µM (inactive) | GI50 (DU-145): > 100 µM (inactive) | GI50 (NCI-H226): > 100 µM (inactive) | GI50 (HL-60): > 100 µM (inactive) | GI50 (SF-268): > 100 µM (inactive) | GI50 (BT-549): > 100 µM (inactive) | GI50 (SNB-19): > 100 µM (inactive) | GI50 (SW-620): > 100 µM (inactive)
